Consider 78 compounds from BindingDB's records for doi:10.7270/Q2251GJ9 (The Scripps Research Institute Molecular Screening Center, 2007).

The target in the first experiment is Sphingosine 1-phosphate receptor 1 (Homo sapiens, UniProt P21453). The experiment is described as follows: direct activation of human S1P1 – cell-based, agonist mode, 60K MLSMR set, dose response (AID 468).
Sequence of Sphingosine 1-phosphate receptor 1 (P21453 whole entry): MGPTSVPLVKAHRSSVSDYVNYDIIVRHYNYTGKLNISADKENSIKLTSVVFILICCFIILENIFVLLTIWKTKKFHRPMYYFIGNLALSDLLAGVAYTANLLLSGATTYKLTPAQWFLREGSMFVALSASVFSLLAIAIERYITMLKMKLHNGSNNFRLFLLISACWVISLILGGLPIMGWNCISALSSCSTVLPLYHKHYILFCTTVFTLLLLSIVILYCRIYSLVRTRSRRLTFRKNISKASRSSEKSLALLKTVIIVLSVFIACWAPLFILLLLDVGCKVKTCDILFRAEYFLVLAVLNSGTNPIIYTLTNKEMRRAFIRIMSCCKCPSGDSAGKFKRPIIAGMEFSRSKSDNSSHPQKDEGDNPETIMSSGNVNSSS
Conditions: not given
Regarding `CCCN(C(=O)c1cccs1)c1nnc(-c2ccncc2)s1` [MLS000074637], the EC50 was 3.38 µM. In other words, the single-digit micromolar range. The same measure, in the same setting: with `Cc1ccnc(SCC(=O)Nc2sc3c(c2C#N)CCCC3)n1` [MLS000077260] the figure was 4.76 µM; with `c1ccc(CN2CCN(c3ncnc4c3[nH]c3ccccc34)CC2)cc1` [MLS000078384], 4.18 µM. Still for that read-out and setting: the same measure for `Fc1ccc2[nH]c3c(N4CCSCC4)ncnc3c2c1` [MLS000078401]: 6.12 µM; for `NC(=Nc1nc2c(c(=O)[nH]1)CCCC2)Nc1ccccc1` [MLS000078734]: 7.23 µM.

Compound `CCc1ccc(NC(=O)c2cc(-c3ccco3)on2)cc1` [MLS000087211] gave a half-maximal effective concentration (EC50) of 6.93 µM. Take `Cc1ccc(NC(=O)c2cc(-c3ccco3)on2)cc1C` [MLS000087214]: the EC50 stood at 4.99 µM. Compound `CCc1c(C)sc(NC(=O)c2cc(-c3ccco3)on2)c1C#N` [MLS000087225] registered a concentration giving a half-maximal response (EC50) of 4.14 µM. In turn, `Cc1nn(Cc2ccc(Cl)c(Cl)c2)c(C)c1NC(=O)c1cc(-c2ccco2)on1` [MLS000087229] returned an EC50 of 5.63 µM. The EC50 values of the last two compounds are within 1.5-fold of each other. Compound `COc1ccc(NC(=O)c2cc(-c3cccs3)on2)cc1OC` [MLS000087261] came in with an EC50 of 5.79 µM. The EC50 values of the last two compounds are within 1.5-fold of each other.

Take `COc1ccc2c(c1)CCc1c(C(=O)Nc3ccc(OC)c(OC)c3)noc1-2` [MLS000087452]: the EC50 was found to be 3.3 µM.

For `CCOc1ccc(C(C)=O)cc1-n1c(O)c2c(c1O)C1C=CC2O1` [MLS000087730], the EC50 worked out at 10.2 µM.

Take `Cn1c(SCC(=O)Nc2ccc(N3CCOCC3)c(Cl)c2)nnc1-c1ccccc1` [MLS000089171]: the EC50 came to 2.22 µM.

In turn, `O=S(=O)(NCc1cn2ccsc2n1)c1ccc(Oc2ccccc2)cc1` [MLS000094195] showed a 50% effective concentration (EC50) of 6.07 µM. `CCCC(=O)N1CCN(c2ccc(NC(=O)c3cc4ccccc4o3)cc2Cl)CC1` [MLS000096729] gave a concentration for a half-maximal effect (EC50) of 8.85 µM. For `CCCc1ccc(OCc2nc(-c3ccc(NC(=O)c4ccco4)cc3)no2)cc1` [MLS000097352], a half-maximal effect (EC50) was put at 4.39 µM. In turn, `O=C(Nc1nc(-c2ccc(Cl)s2)cs1)c1ccncc1` [MLS000098514] registered an EC50 of more than 3 µM. On the same count and under the same terms, the same measure for `O=C(Nc1ccc(S(=O)(=O)NCc2ccco2)cc1)c1ccc2ccccc2n1` [MLS000098663]: 8.51 µM; for `CCC(=O)Nc1ccc2c(c1)C(=O)N(C1CCCCC1)C2=O` [MLS000099936]: more than 30 µM; for `O=C(c1ccc(Cl)s1)N1CCN(c2nc3ccccc3s2)CC1` [MLS000100900]: more than 30 µM. For `Cc1nc2ccc3nc(NC(=O)C4COc5ccccc5O4)sc3c2s1` (stereo not drawn) [MLS000100909], it took 4.9 µM to reach a half-maximal effect (EC50). Compound `CCc1nnc(NC(=O)C2CCCCC2)s1` [MLS000104554] gave a half-maximal effective concentration (EC50) of more than 95 µM. In the case of `CC(=O)Oc1ccc(-n2c(O)c3c(c2O)C2(C)C=CC3(C)O2)cc1` [MLS000107813], the response was half-maximal at 11.8 µM (EC50). Still for that read-out and setting: with `COc1ccc(NC(=O)c2cnn3c(C(F)(F)F)cc(-c4ccco4)nc23)cc1OC` [MLS000109325] the figure was more than 95 µM; with `Cc1cc2nc(-c3ccc(NC(=O)C(C)C)cc3)oc2cc1C` [MLS000109473], 3.04 µM. Same read-out and setting: with `COc1ccc(CN=O)cc1COc1ccc(NC(C)=O)cc1` [MLS000111933] the figure was more than 95 µM; with `COC(=O)Cc1sc(=O)[nH]c1Nc1ccccc1` [MLS000111966], more than 95 µM. On the same count and under the same terms, the same measure for `Cc1cc(C=Nn2cnnc2)c(C)n1-c1ccc(OCc2ccc(F)cc2)cc1` [MLS000112167]: 0.552 µM.

Turning to `Cc1cc(C=Nn2cnnc2)c(C)n1-c1ccc(OCc2ccccc2F)cc1` [MLS000112180], a half-maximal response (EC50) required 1.08 µM. The same measure, in the same setting: with `CC(C)(C)SCCNS(=O)(=O)c1ccccc1` [MLS000112230] the figure was more than 95 µM.

On to `COc1ccc(-c2nc(-c3ccc(NC(=O)c4ccncc4)cc3)no2)cc1OC` [MLS000115086], for which the EC50 was 0.946 µM. Compound `O=C(Nc1c(F)cc(F)cc1Br)c1cc(-c2ccc(O)cc2)on1` [MLS000116264] showed an EC50 of 2.37 µM. Consider `CCCc1cc(C(=O)Nc2sc(C)c(CC)c2C#N)no1` [MLS000116385], for which the EC50 was 3.73 µM. Against the preceding compound, the EC50 is about 1.6-fold higher. Compound `CCCc1cc(C(=O)Nc2sc3c(c2C#N)CCC3)no1` [MLS000116386] came in with a 50% effective concentration (EC50) of more than 95 µM. Still for that read-out and setting: the same measure for `CC(C)Cc1cc(C(=O)Nc2sc3c(c2C#N)CCCC3)no1` [MLS000116410]: more than 10 µM. Same read-out and setting: with `Cc1nn(Cc2ccc(Cl)c(Cl)c2)c(C)c1NC(=O)c1cc(CC(C)C)on1` [MLS000116412] the figure was 9.16 µM.

In turn, `Cc1noc(C)c1S(=O)(=O)N(CC(=O)Nc1ccc2c(c1)OCO2)c1ccc(C(C)C)cc1` [MLS000117405] showed an EC50 of more than 95 µM. Same read-out and setting: with `Cc1nc2ccccc2c2oc(C(=O)NCC3COc4ccccc4O3)cc12` (stereo not drawn) [MLS000118430] the figure was 8.06 µM; with `COc1ccc(CNC(=O)c2cc3c(C)nc4ccccc4c3o2)c(OC)c1` [MLS000118441], 4.2 µM. Still for that read-out and setting: with `Cc1csc(NC(=O)C(Cc2ccccc2)n2cccc2)n1` (stereo not drawn) [MLS000119019] the figure was 2.77 µM. The compound `O=C(Nc1ncc(Br)s1)C(Cc1ccccc1)n1cccc1` (stereo not drawn) [MLS000119027] showed an EC50 of 2.23 µM. On to `CCSc1nnc(NC(=O)C(Cc2ccccc2)n2cccc2)s1` (stereo not drawn) [MLS000119034], for which the EC50 was more than 30 µM.

Turning to `Cc1ccc(-c2csc(N3CCC(NS(=O)(=O)c4ccc5c(c4)OCCO5)CC3)n2)cc1` [N-[1-[4-(4-methylphenyl)-1,3-thiazol-2-yl]piperidin-4-yl]-2,3-dihydro-1,4-benzodioxine-6-sulfonamide], the half-maximal effective concentration (EC50) was 1.65 µM.

On to `CCC(C)c1ccc2oc(-c3ccc(NC(=O)c4nnc[nH]4)cc3)nc2c1` (stereo not drawn) [N-[4-(5-sec-butyl-1,3-benzoxazol-2-yl)phenyl]-1H-1,2,4-triazole-3-carboxamide], for which the EC50 is more than 10 µM. `c1ccc(CNc2ncnc3ccccc23)cc1` [N-benzylquinazolin-4-amine]: the EC50 is 4.81 µM. The same measure, in the same setting: with `Clc1ccc(CCNc2[nH]cnc3ncnc2-3)cc1` [SMR000017624] the figure was 9.86 µM; with `CC1Cc2ccccc2N1c1ncnc2nc[nH]c12` (stereo not drawn) [SMR000017649], 3.78 µM; with `O=S1(=O)C=C(Sc2nc3cc(Cl)ccc3o2)c2ccccc21` [SMR000019512], more than 30 µM. For the compound `CCCc1ccc(Oc2c[nH]nc2-c2ccc(O)c(C)c2O)cc1` [SMR000024172], the EC50 worked out at 12.9 µM. This counts as double-digit micromolar. Take `Cc1oc(-c2ccccc2)nc1Cn1cccc1C1=NC(c2ccccc2)CO1` (stereo not drawn) [SMR000026251]: the 50% effective concentration (EC50) was determined as 0.922 µM. Still for that read-out and setting: the same measure for `c1ccc2c(c1)CCN(c1ncnc3c1[nH]c1ccccc13)C2` [SMR000039631]: 1.19 µM. On the same count and under the same terms, with `CCC(NC(C)c1ccccc1)=C1C(=O)N(C)C(=O)N(C)C1=O` (stereo not drawn) [SMR000043429] the figure was 13.6 µM; with `Cc1ccccc1CS(=O)(=O)c1nnc([C@H](CC(C)C)NC(=O)OC(C)(C)C)o1` [SMR000044673], 7.51 µM; with `Cc1ccc2c(c1)[nH]c1c(N3CCN(Cc4ccccc4)CC3)ncnc12` [SMR000044826], 3.27 µM. On the same count and under the same terms, the same measure for `COC(=O)CS(=O)(=O)c1nnc([C@H](Cc2ccccc2)NC(=O)OC(C)(C)C)o1` [SMR000046685]: 6.99 µM; for `CC(C)(C)OC(=O)N[C@@H](Cc1ccccc1)c1nnc(S(=O)(=O)Cc2ccccc2)o1` [SMR000047857]: 4.1 µM.

The experiment is the same for the next values; noted with them: inactive by the depositor's call.
As for `O=C(c1ccco1)N1CCN(c2ncnc3c2[nH]c2ccc(Br)cc23)CC1` [MLS000078404], the midpoint of the response, the EC50, lay at 13.9 µM. `CCN(CC)C(=O)Oc1ccc2c(=O)c(-c3ccc(OC)cc3)coc2c1` [MLS000083046] showed a concentration giving a half-maximal response (EC50) of 12.9 µM. Regarding `COc1ccc(-c2cc(C(=O)NC3CCCC3)no2)cc1OC` [MLS000087117], it took 15.8 µM to reach a half-maximal effect (EC50). The EC50 values of the last two compounds are within 1.5-fold of each other. On the same count and under the same terms, with `COc1ccc(OC)c(-c2cc(C(=O)Nc3c(C)nn(Cc4ccc(Cl)cc4)c3C)no2)c1` [MLS000087191] the figure was 20.8 µM; with `Cc1nn(Cc2ccc(Cl)cc2)c(C)c1NC(=O)c1cc(-c2ccco2)on1` [MLS000087233], 13.8 µM; with `COc1ccc2c(c1)CCc1c(C(=O)NC3CCCCC3)noc1-2` [MLS000087437], 95 µM.

As to `O=C(Nc1nc(-c2nc3ccccc3s2)cs1)c1ccc(S(=O)(=O)N2CCOCC2)cc1` [MLS000087900], it took 17.6 µM to reach a half-maximal effect (EC50). Same read-out and setting: with `CCCC(=O)Nc1ccc(-c2nc3cc(C)c(C)cc3o2)cc1` [MLS000089940] the figure was 10.2 µM; with `Cc1cccc(-n2ncc3c(N(C)C4CCCCC4)ncnc32)c1` [MLS000100814], 95 µM. `CCCOc1ccc(S(=O)(=O)NCc2ccc(OC)cc2)cc1` [MLS000104592] had a 50% effective concentration (EC50) of 23.1 µM. The same measure, in the same setting: with `CC(=O)Nc1ccc(S(=O)(=O)N2CCN(c3cccc(C)c3C)CC2)cc1` [MLS000115810] the figure was 15.4 µM; with `CSc1ccc(S(=O)(=O)Nc2ccc3c(c2)OCCO3)cc1` [MLS000115922], 13.6 µM; with `CC(C)Cc1cc(C(=O)Nc2cc(Br)ccc2O)no1` [MLS000116399], 20.2 µM. Still for that read-out and setting: with `CCCOC(=O)c1[nH]c2c(c1C)C(=O)CC(c1cc(OC)c(OC)c(OC)c1)C2` (stereo not drawn) [MLS000116504] the figure was 10.9 µM; with `CCC(C)OC(=O)c1[nH]c2c(c1C)C(=O)CC(c1ccc(N(C)C)cc1)C2` (stereo not drawn) [MLS000116530], 18.7 µM. As to `O=C(C1CCN(S(=O)(=O)c2cccc3cccnc23)CC1)N1CCN(c2ccc(Cl)cc2)CC1` [MLS000116819], the 50% effective concentration (EC50) came out at 17.3 µM. Still for that read-out and setting: the same measure for `Cc1noc(C)c1S(=O)(=O)N(CC(=O)Nc1ccc2c(c1)OCCO2)c1ccc(C(C)C)cc1` [MLS000117406]: 14.2 µM; for `Cc1ccc(Cl)cc1N1CCN(C(=O)C2CCN(c3nnc(-n4cccc4)s3)CC2)CC1` [MLS000119702]: 34.4 µM. Same read-out and setting: with `COc1ccc(S(=O)(=O)Cc2ccc(C(=O)N3CCN(c4cccc(C)c4C)CC3)o2)cc1` [MLS000120226] the figure was 14 µM; with `COc1ccc(S(=O)(=O)Cc2ccc(C(=O)N3CCN(c4ccc(Cl)cc4)CC3)o2)cc1` [MLS000120227], 13.7 µM. Take `Cc1cccc(N2CCN(C(=O)C3CCCN(S(=O)(=O)c4cccc5cccnc45)C3)CC2)c1C` (stereo not drawn) [MLS000120299]: the EC50 stood at 16.3 µM. This EC50 and that of the compound before are within 1.5-fold of each other.

`COc1ccc2c(c1)-c1nc(NC(=O)c3cccs3)sc1CC2` [N-(8-methoxy-4,5-dihydrobenzo[e][1,3]benzothiazol-2-yl)-2-thiophenecarboxamide] registered an EC50 of 17.3 µM.

A word on the EC50: it is the midpoint of the concentration-response curve. A lower EC50 goes with higher potency in that assay.
